Earlier results on 1 substance are cited in article PMC4905688 (Biomaterials, 2016).

The series relates to ischemic limbs.

Turning to VEGF, the “Effect of local delivery on ischemia / vessels” value was “modest reversal of ischemia or the development of leaky blood vessels”.
